Test results: patent publication US9969964B2, “Disease-on-a-chip” (Purdue Research Foundation, priority 2013, dated 2018)

System: T4-2 tumor nodules
Test: Apoptosis (TUNEL assay combined with DAPI scoring of pyknotic and karyorrhectic nuclei) of T4-2 tumor nodules treated with chemotherapeutic drugs
Type: cell-based
Conditions: for sensitivity of tumor nodules to drug (apoptosis): T4-2 nodules cocultured with S1 non-neoplastic breast epithelium on flat surfaces compared to monocultures of tumor nodules, FIG. 21 and 22; for sensitivity of cancer cells to drug (apoptosis): T4-2 nodules cocultured with S1 within semicircular hemichannels versus on flat surfaces
Text: The findings described above prompted a test of the sensitivity of T4-2 tumor nodules to the chemotherapeutic drugs bleomycin (BLM, a radiomimetic agent used in the laboratory to study cellular responses to treatments that compromise genome integrity) and doxorubicin (DOX, an anthracycline used for the treatment of breast cancer). In this study, apoptosis was utilized as an endpoint to evaluate drug responses and was quantified using the TUNEL assay combined with visual scoring for pyknotic and karyorrhectic nuclei via DAPI staining (i.e. nuclear condensation and fragmentation, respectively). Three types of T4-2 nodules were compared: monocultures, cocultures with S1 luminal epithelium on the flat surface of the chip, and cocultures with S1 epithelium in the semicircular hemichannels.
This difference is intriguing and could not be explained by the proliferation status within nodules on flat surfaces and in hemichannels (27.5%±1.8% and 24.2%±2.5% Ki67-positive cells, respectively; P=0.292, unpaired t-test, n>10 nodule sections corresponding to >700 nuclei). […] It is possible that the microenvironment or the geometry in the hemichannels promotes modifications in the nuclear organization of tumor cells, which may influence cellular responses to cytotoxic drugs. This view is supported by the measured differences in nuclear circularity reported above, and is in agreement with early recommendations that nuclear morphometric descriptors, including roundness, should be investigated as possible predictors of response to therapy. The disease-on-a-chip system used for coculture with cancer cells provides a system with potential for improved understanding of cancer development and drug assessment in tissue context.

Compound | sensitivity of tumor nodules to drug (apoptosis) | sensitivity of cancer cells to drug (apoptosis) | toxicity to T4-2 nodules (drug concentration chosen to ease detection of increased sensitivity to genotoxic stress, should minimally affect cell survival)
COc1cccc2c1C(=O)c1c(O)c3c(c(O)c1C2=O)C[C@@](O)(C(=O)CO)C[C@@H]3O[C@H]1C[C@H](N)[C@H](O)[C@H](C)O1 [DOX, doxorubicin] | increased sensitivity | significantly less | –
bleomycin [BLM] | increased sensitivity | significantly less | low toxicity
